Bounds are passed on as bounds.

A word on the EC90: it is the concentration at which the effect reaches the 90% level.

The test system of this experiment is HCV replicon. The experiment can be described thus: Cell-Based HCV Replicon Assay. To be noted: Hepatitis C virus, 72 h; replicon cells, replicon RNA level by real time PCR (Taqman) on day 3; EC90 = concentration to achieve ΔCT=3.2 over baseline; read-out: Biological activity (EC90, HCV replicon assay). The procedure:
To measure cell-based anti-HCV activity of selected compounds of the present invention, replicon cells were seeded at 5000 cells/well in 96-well collagen I-coated Nunc plates in the presence of the test compound. Various concentrations of test compound, typically in 10 serial 2-fold dilutions, were added to the assay mixture, with the starting concentration ranging from 250 µM to 1 μM. The final concentration of DMSO was 0.5%, fetal bovine serum was 5%, in the assay media. Cells were harvested on day 3 by the addition of 1× cell lysis buffer (Ambion cat #8721). The replicon RNA level was measured using real time PCR (Taqman assay). The amplicon was located in 5B. The PCR primers were: 5B.2F, ATGGACAGGCGCCCTGA (SEQ. ID NO. 1); 5B.2R, […] (SEQ. ID NO. 2); the probe sequence was FAM-labeled CACGCCATGCGCTGCGG (SEQ. ID NO. 3). GAPDH RNA was used as endogenous control and was amplified in the same reaction as NS5B (multiplex PCR) using primers and VIC-labeled probe recommended by the manufacturer (PE Applied Biosystem). The real-time RT-PCR reactions were run on ABI PRISM 7900HT Sequence Detection System using the following program: 48° C. for 30 min, 95° C. for 10 min, 40 cycles of 95° C. for 15 sec, 60° C. for 1 min. The ΔCT values (CT-CT5BCTGAPDH) were plotted against the concentration of test compound and fitted to the sigmoid dose-response model using XLfit4 (MDL). EC50 was defined as the concentration of inhibitor necessary to achieve ΔCT=1 over the projected baseline; EC90 the concentration necessary to achieve ΔCT=3.2 over the baseline. Alternatively, to quantitate the absolute amount of replicon RNA, a standard curve was established by including serially diluted T7 transcripts of replicon RNA in the Taqman assay. All Taqman reagents were from PE Applied Biosystems. Such an assay procedure was described in detail in e.g. Malcolm et at, Antimicrobial Agents and Chemotherapy 50: 1013-1020 (2006).
HCV replicon assay data was calculated for selected compounds of the present invention using this method and is provided in the table below.
For orientation: Replicon systems follow genome replication, usually without infectious particles.
Take `COC(=O)N[C@H](C(=O)N1CCCC[C@H]1c1nc2ccc(-c3ccc4c(ccc5nc([C@@H]6CCCN6)[nH]c54)c3)cc2[nH]1)C(C)C` [Compound 10]: the 90% effect concentration (EC90) is 1 to 999 nM.

`COC(=O)N[C@H](C(=O)N1CCC[C@H]1c1nc2ccc3cc(-c4ccc5nc([C@@H]6CCCN6C(C)=O)[nH]c5c4)ccc3c2[nH]1)C(C)C` [Compound 5]: the EC90 is less than 1 nM.

With `CC(C)(C)OC(=O)N1CC(F)(F)C[C@H]1c1nc2ccc(-c3ccc4c(ccc5nc([C@@H]6CCCN6C(=O)OC(C)(C)C)[nH]c54)c3)cc2[nH]1` [Compound 9], the EC90 fell in the range of 1 to 999 nM.

With `COC(=O)N[C@H](C(=O)N1CCC[C@H]1c1nc2ccc(-c3ccc4c(ccc5nc([C@@H]6CCCN6)[nH]c54)c3)cc2[nH]1)C(C)C` [Compound 17], the concentration for an effect of 90% (EC90) is 1 to 999 nM.

With `CC(C)[C@H](N)C(=O)N1CC(F)(F)C[C@H]1c1nc2ccc(-c3ccc4c(ccc5nc([C@@H]6CCCN6C(=O)[C@@H](N)C(C)C)[nH]c54)c3)cc2[nH]1` [Compound 14], the EC90 lay within 1 to 999 nM.

In the case of `COC(=O)N[C@H](C(=O)N1CCC[C@H]1c1ncc(-c2ccc(-c3ccc4c(ccc5nc([C@@H]6CCCN6C(=O)[C@@H](NC(=O)OC)C(C)C)[nH]c54)c3)s2)[nH]1)C(C)C` [Compound 1], the EC90 was less than 1 nM.

`COC(=O)N[C@H](C(=O)N1CCC[C@H]1c1nc2ccc(-c3sc4ccc(-c5ccc6c(ccc7nc([C@@H]8CCCN8C(=O)[C@@H](NC(=O)OC)C(C)C)[nH]c76)c5)cc4c3C)cc2[nH]1)C(C)C` [Compound 16]: the concentration for an effect of 90% (EC90) is less than 1 nM.

Take `COC(=O)N[C@H](C(=O)N1CC(F)(F)C[C@H]1c1nc2ccc(-c3ccc4c(ccc5nc([C@@H]6CCCN6C(=O)[C@@H](NC(=O)OC)C(C)C)[nH]c54)c3)cc2[nH]1)C(C)C` [Compound 12]: the EC90 was less than 1 nM.

As to `Cc1cc(-c2cnc([C@@H]3CCCN3C(=O)OC(C)(C)C)[nH]2)sc1-c1ccc2c(ccc3nc([C@@H]4CCCN4C(=O)OC(C)(C)C)[nH]c32)c1` [Compound 15], the EC90 lay within 1 to 999 nM.

As to `COC(=O)N[C@H](C(=O)N1CCC[C@H]1c1ncc(-c2cc(C)c(-c3ccc4c(ccc5nc([C@@H]6CCCN6C(=O)[C@@H](NC(=O)OC)C(C)C)[nH]c54)c3)s2)[nH]1)C(C)C` [Compound 2], the EC90 was less than 1 nM.

As for `CC(C)(C)OC(=O)N1CCCC[C@H]1c1nc2ccc(-c3ccc4c(ccc5nc([C@@H]6CCCN6C(=O)OC(C)(C)C)[nH]c54)c3)cc2[nH]1` [Compound 8], the EC90 was 1 to 999 nM.

On to `COC(=O)N[C@H](C(=O)N1CCC[C@H]1c1nc2ccc(-c3ccc4c(ccc5nc([C@@H]6CCCN6C(=O)[C@@H](NC(=O)OC)C(C)C)[nH]c54)c3)cc2[nH]1)C(C)C` [Compound 3], for which the EC90 was less than 1 nM.

`CC(=O)N1CCC[C@H]1c1nc2ccc(-c3ccc4c(ccc5nc([C@@H]6CCCN6C(=O)OC(C)(C)C)[nH]c54)c3)cc2[nH]1` [Compound 4]: the 90% effect concentration (EC90) is not below 1000 nM.

For the compound `COC(=O)N[C@H](C(=O)N1CCCC[C@H]1c1nc2ccc(-c3ccc4c(ccc5nc([C@@H]6CCCN6C(=O)[C@@H](NC(=O)OC)C(C)C)[nH]c54)c3)cc2[nH]1)C(C)C` [Compound 11], the EC90 was less than 1 nM.

With `COC(=O)N[C@H](C(=O)N1CCC[C@H]1c1nc2cc(F)c(-c3ccc4c(ccc5nc([C@@H]6CCCN6C(=O)[C@@H](NC(=O)OC)C(C)C)[nH]c54)c3)cc2[nH]1)C(C)C` [Compound 7], the EC90 is less than 1 nM.

With `CC(=O)N1CCC[C@H]1c1nc2ccc(-c3ccc4c(ccc5nc([C@@H]6CCCN6)[nH]c54)c3)cc2[nH]1` [Compound 6], the EC90 is 1 to 999 nM.

As to `CC(C)[C@H](NC(=O)OC(C)(C)C)C(=O)N1CC(F)(F)C[C@H]1c1nc2ccc(-c3ccc4c(ccc5nc([C@@H]6CCCN6C(=O)[C@@H](NC(=O)OC(C)(C)C)C(C)C)[nH]c54)c3)cc2[nH]1` [Compound 13], the EC90 was less than 1 nM.

(Values after US9796705B2, “Fused tricyclic compounds and methods of use thereof for the treatment of viral diseases” (Merck Sharp & Dohme Corp., priority 2009, dated 2017).)
